Source: ChEMBL document CHEMBL4390659, “Molecular hybridization approach for phenothiazine incorporated 1,2,3-triazole hybrids as promising antimicrobial agents: Design, synthesis, molecular docking and in silico ADME studies” (Eur J Med Chem, 2019)
Values after ≈ are worked out from the molar mass of the structure shown.

How the values were obtained:
[1] = test system: Pseudomonas aeruginosa; assay: Antibacterial activity against Pseudomonas aeruginosa incubated for 24 hrs by agar dilution method; type: functional
[2] = test system: Mycobacterium tuberculosis; assay: Antibacterial activity against Mycobacterium tuberculosis H37Rv ATCC 27294 assessed as reduction in mycobacterial growth incubated for 5 days by MABA method; type: functional; conditions: H37Rv ATCC 27294, 120 h
[3] = test system: Staphylococcus aureus; assay: Antibacterial activity against Staphylococcus aureus incubated for 24 hrs by agar dilution method; type: functional
[4] = test system: Escherichia coli; assay: Antibacterial activity against Escherichia coli incubated for 24 hrs by agar dilution method; type: functional
[5] = Selectivity index, ratio of IC50 for African green monkey Vero cells to MIC for Mycobacterium tuberculosis H37Rv ATCC 27294; type: toxicity; conditions: read-out: Selectivity Index
[6] = test system: Mycobacterium tuberculosis; assay: Potency index, ratio of ciprofloxacin MIC to test compound MIC against Mycobacterium tuberculosis H37Rv ATCC 27294; type: functional
[7] = test system: Vero; assay: Cytotoxicity against African green monkey Vero cells assessed as reduction in cell viability incubated for 72 hrs by MTT assay; type: cell-based; conditions: Chlorocebus sabaeus
[8] = Cytotoxicity against African green monkey Vero cells assessed as cell growth inhibition at 6.25 ug/ml incubated for 72 hrs by MTT assay relative to control; type: cell-based; conditions: chlorocebus sabaeus, read-out: GI
[9] = test system: Mycobacterium tuberculosis; assay: Potency index, ratio of streptomycin MIC to test compound MIC against Mycobacterium tuberculosis H37Rv ATCC 27294; type: functional

Compound: CN1c2ccccc2Sc2cc(COCc3cn(Cc4ccc(F)cc4)nn3)ccc21
- MIC [1]: 50 µg/mL (≈ 116 µM)
- MIC [2]: 28.9 µM
- MIC [3]: 25 µg/mL (≈ 57.8 µM)
- MIC [4]: 25 µg/mL (≈ 57.8 µM)

Compound: Cc1ccc(Cn2cc(COCc3ccc4c(c3)Sc3ccccc3N4C)nn2)cc1
- MIC [1]: 100 µg/mL (≈ 233 µM)
- MIC [2]: 58.3 µM
- MIC [3]: 50 µg/mL (≈ 117 µM)
- MIC [4]: 100 µg/mL (≈ 233 µM)

Compound: CN1c2ccccc2Sc2cc(/C=N/OCc3cn(Cc4ccc(C#N)cc4)nn3)ccc21
- MIC [1]: 25 µg/mL (≈ 55.2 µM)
- MIC [2]: 27.6 µM
- MIC [3]: 12.5 µg/mL (≈ 27.6 µM)
- MIC [4]: 25 µg/mL (≈ 55.2 µM)

Compound: CN1c2ccccc2Sc2cc(/C=N/OCc3cn(Cc4ccccc4F)nn3)ccc21
- MIC [1]: 25 µg/mL (≈ 56.1 µM)
- MIC [2]: 56.1 µM
- MIC [3]: 12.5 µg/mL (≈ 28.1 µM)
- MIC [4]: 25 µg/mL (≈ 56.1 µM)

Compound: c1ccc(Cn2cc(CN3c4ccccc4Sc4ccccc43)nn2)cc1
- MIC [1]: 100 µg/mL (≈ 270 µM)
- MIC [2]: 6.25 µg/mL
- MIC [3]: 50 µg/mL (≈ 135 µM)
- MIC [4]: 50 µg/mL (≈ 135 µM)

Compound: COc1ccc(Cn2cc(CO/N=C/c3ccc4c(c3)Sc3ccccc3N4C)nn2)cc1
- MIC [1]: 100 µg/mL (≈ 219 µM)
- MIC [2]: 54.6 µM
- MIC [3]: 50 µg/mL (≈ 109 µM)
- MIC [4]: 100 µg/mL (≈ 219 µM)

Compound: CN1c2ccccc2Sc2cc(COCc3cn(Cc4ccc([N+](=O)[O-])cc4)nn3)ccc21
- MIC [1]: 50 µg/mL (≈ 109 µM)
- MIC [2]: 54.4 µM
- MIC [3]: 25 µg/mL (≈ 54.4 µM)
- MIC [4]: 50 µg/mL (≈ 109 µM)

Compound: CN1c2ccccc2Sc2cc(/C=N/OCc3cn(Cc4ccc([N+](=O)[O-])cc4)nn3)ccc21
- MIC [1]: 100 µg/mL (≈ 212 µM)
- MIC [2]: 52.9 µM
- MIC [3]: 25 µg/mL (≈ 52.9 µM)
- MIC [4]: 50 µg/mL (≈ 106 µM)

Compound: CN1c2ccccc2Sc2cc(/C=N/OCc3cn(Cc4ccc(F)cc4)nn3)ccc21
- MIC [1]: 25 µg/mL (≈ 56.1 µM)
- MIC [2]: 56.1 µM
- MIC [3]: 12.5 µg/mL (≈ 28.1 µM)
- MIC [4]: 25 µg/mL (≈ 56.1 µM)

Compound: CN1c2ccccc2Sc2cc(COCc3cn(Cc4ccccc4)nn3)ccc21
- MIC [1]: 100 µg/mL (≈ 241 µM)
- MIC [2]: 60.3 µM
- MIC [3]: 50 µg/mL (≈ 121 µM)
- MIC [4]: 50 µg/mL (≈ 121 µM)

Compound: N#Cc1ccc(Cn2cc(CN3c4ccc(/C=N/NC(=O)c5ccccc5)cc4Sc4ccc(C(F)(F)F)cc43)nn2)cc1
- MIC [1]: 50 µg/mL (≈ 82 µM)
- selectivity ratio [5]: 44.7
- Ratio [6]: 4
- MIC [2]: 2.62 µM
- MIC [3]: 50 µg/mL (≈ 82 µM)
- IC50 [7]: 552 µg/mL (≈ 905 µM)
- inhibition at 72 h, 6.25 ug/ml [8]: 12.3%
- MIC [4]: 50 µg/mL (≈ 82 µM)
- Ratio [9]: 4

Compound: O=C(O)c1cn(C2CC2)c2cc(N3CCNCC3)c(F)cc2c1=O [CIPROFLOXACIN]
- MIC [1]: 4 µg/mL (≈ 12.1 µM)
- MIC [3]: 2 µg/mL (≈ 6.04 µM)

Compound: Cc1ccc(Cn2cc(CN3c4ccccc4Sc4ccccc43)nn2)cc1
- MIC [1]: 100 µg/mL (≈ 260 µM)
- MIC [2]: 6.25 µg/mL
- MIC [3]: 50 µg/mL (≈ 130 µM)
- MIC [4]: 100 µg/mL (≈ 260 µM)

Compound: CN1c2ccccc2Sc2cc(/C=N/OCc3cn(Cc4ccccc4)nn3)ccc21
- MIC [1]: 50 µg/mL (≈ 117 µM)
- MIC [2]: 58.4 µM
- MIC [3]: 50 µg/mL (≈ 117 µM)
- MIC [4]: 100 µg/mL (≈ 234 µM)

Compound: NNC(=O)c1ccncc1 [ISONIAZID]
- MIC [2]: 3.12 µg/mL

Compound: CN1c2ccccc2Sc2cc(COCc3cn(Cc4ccc(C#N)cc4)nn3)ccc21
- MIC [1]: 25 µg/mL (≈ 56.9 µM)
- MIC [2]: 28.4 µM
- MIC [3]: 12.5 µg/mL (≈ 28.4 µM)
- MIC [4]: 25 µg/mL (≈ 56.9 µM)

Compound: COc1ccc(Cn2cc(COCc3ccc4c(c3)Sc3ccccc3N4C)nn2)cc1
- MIC [1]: 50 µg/mL (≈ 112 µM)
- MIC [2]: 56.2 µM
- MIC [3]: 50 µg/mL (≈ 112 µM)
- MIC [4]: 100 µg/mL (≈ 225 µM)

Compound: NC(=O)c1cnccn1 [PYRAZINAMIDE]
- MIC [2]: 3.12 µg/mL

Compound: Fc1ccc(Cn2cc(CN3c4ccccc4Sc4ccccc43)nn2)cc1
- MIC [1]: 12.5 µg/mL (≈ 32.2 µM)
- selectivity ratio [5]: 456
- MIC [2]: 3.12 µg/mL
- MIC [3]: 12.5 µg/mL (≈ 32.2 µM)
- IC50 [7]: 3800 µg/mL (≈ 9790 µM)
- inhibition at 72 h, 6.25 ug/ml [8]: 8.34%
- MIC [4]: 12.5 µg/mL (≈ 32.2 µM)

Compound: CN1c2ccccc2Sc2cc(COCc3cn(Cc4ccccc4F)nn3)ccc21
- MIC [1]: 50 µg/mL (≈ 116 µM)
- MIC [2]: 28.9 µM
- MIC [3]: 25 µg/mL (≈ 57.8 µM)
- MIC [4]: 25 µg/mL (≈ 57.8 µM)

Compound: Cc1ccc(Cn2cc(CO/N=C/c3ccc4c(c3)Sc3ccccc3N4C)nn2)cc1
- MIC [1]: 100 µg/mL (≈ 226 µM)
- MIC [2]: 56.6 µM
- MIC [3]: 25 µg/mL (≈ 56.6 µM)
- MIC [4]: 50 µg/mL (≈ 113 µM)

Compound: CN[C@@H]1[C@H](O[C@H]2[C@H](O[C@H]3[C@H](O)[C@@H](O)[C@H](N=C(N)N)[C@@H](O)[C@@H]3N=C(N)N)O[C@@H](C)[C@]2(O)C=O)O[C@@H](CO)[C@H](O)[C@H]1O [STREPTOMYCIN]
- MIC [2]: 6.25 µg/mL
